# Values joined by “and” are separate entries in the source; they are usually repeats but may differ in a detail not shown here. Identical values can stand only once.
# Legend:
# Assay type in all cases: cell-based, human
# Filaggrin = assay: Fluorescence imaging (immunostaining) of protein expression on skin explants ex vivo; settings: ectoine 0.2% w/v, 24 hours prior to UV-A irradiation (365 nm, 480J/cm^2, 40 minutes); Figure 2
# Description: (§1) To evidence changes at the expression level of a selected pool of proteins on skin explants (ex vivo), treated or not with ectoine 0.2% (source Merck KGaA. Darmstadt, Germany) and exposed or not to UV-A irradiation: At day 0 (D0), the skin explants from a donor (phototype III, ref. EXP001100F022) are kept alive in calcium-free DMEM (Dulbecco's modified Eagle medium), with 10% FCS (Fetal calf serum), at 37°C and humid atmosphere, supplemented with 5% CO2. On day 1 (D1), ectoine 0.2% w/v) is obtained by dilution in H2O. The experimental groups are incubated for 24 hours with the active prior to irradiation.
# (§2) On day 2 (D2), a stress induced by irradiation with UV-A (LED source, peak at 365 nm at a 480J/cm^2 during 40 minutes) is applied to the explants.
# (§3) Skin explants are previously treated or not with ectoine and irradiated or not with UV-A, cryo-preserved in OCT (an embedding resin (Shandon Cryomatrix; Thermo Scientific, Reference 6769006)), flash-frozen in isopetan/liquid nitrogen and stored at -80 °C.
# (§4) Tissue sections of 5 µm are cut by using a cryotome, air-dried at room temperature (RT) for 15 minutes and fixed with a mix of 95% ethanol/5% acetic acid for 5 minutes. Fixed tissues are then saturated with 5% BSA (bovine serum albumin) in PBS (Phosphate Buffered Saline; 1X, pH 7.4) at RT. […]
# LAMP2A = assay: as above; settings: ectoine 0.2% w/v; basal conditions (without UV-A); Figure 3
# Description: as §1, §2, §3, §4
# skin explants = assay: Protein oxidation (carbonylation) by differential in-gel electrophoresis proteomics, unidentified spots and overall spot pattern; settings: for Average normalized volume (oxidation level): UV-A + Ectoine 0.2%, UV-A 365 nm, 480J/cm2, 40 min
# Description: To assess and quantify protein oxidation (carbonylation) by differential in-gel electrophoresis proteomics approach evidencing differentially oxidized protein spots upon UV-A (365 nm) irradiation on skin explants in the presence or absence of ectoine (0,2%) (source Merck KGaA, Darmstadt, Germany).
# During the study human explants are irradiated under UVA (LED source; sources and chamber manufactured for custom needs by UWAVE;France, peak at 365nm at a 480J/cm2 dose during 40 min). A solution of N-acetylcysteine (Reference A7250, Sigma-Aldrich) is used as positive control of protection. Just after irradiation, explants are snap-frozen and proteins extracted for analyses.
# Protein extraction from explants is performed using a commercial kit (Total Protein Extraction Kit, Merck KGaA) protocol for skin explants. Extracted proteins are quantified by the Bradford method and split into equal amounts for analyses. The samples are analyzed for carbonylated proteins after they are labeled with fluorescent probes functionalized to selectively react with carbonyl groups. The fluorescent labeling of carbonyls is obtained by the reaction with amine-N-oxyl functionalized fluorophore (custom synthetized) and formation of a stable covalent bond.
# Thus, the samples are labeled with two different fluorescent dyes characterized by different excitation and emission wavelength peaks: CF®555 (Source :Biotium) is a red fluorescent dye spectrally similar to Cy3® and Alexa Fluor® 555 (λex547nm/λem572nm) and CF®647 (Source: Biotium) CF®647is a far-red fluorescent dye spectrally similar to Cy®5 and Alexa Fluor® 647 (λex639nm/λem668nm). This approach allows to load two distinct labeled samples in the same bi-dimensional electrophoresis gel and to analyze them independently.
# Moreover, 50 µg of proteins of each sample are pooled and labeled a third fluorescent probe CF®488 (Source: Biotium) (λex483nm/λem508nm). CF®488 is a green fluorescent dye spectrally similar to Alexa Fluor® 488. CF®488 is and used as Internal Standard (IS) for inter-gel normalization. After specific fluorescent labeling, carbonylated proteins are separated by bi-dimensional electrophoresis and the fluorescence images are obtained for each specifically labeled sample.
# The first dimension of protein separation (isoelectric focusing) is performed using gel-strips with nonlinear pH 3 to 11 while the second step of electrophoresis separation is conducted by SDS-PAGE using 4%-20% w/v gradient polyacrylamide gels. The digital acquisition of gel images is performed by using the «Ettan DIGE imager» system (GE Healthcare). Data treatment is performed with the software «Progenesis SameSpots» (Nonlinear Dynamics, UK).
# Carbonylated proteins are presented as superposed images of two independent fluorescent signals (in green or red) and the coincident proteins with equivalent intensity result in yellow spots by superposition of the two dye colors used for their labeling (superposition of green and red colors). The carbonylated proteins that are present in a different level in the two samples on gel are visualized as red or green spots depending by the experimental group as independent labeling of each sample.
# More than 200 spots are detected per sample, with an increase in number and intensity in the samples of the irradiated group (UV-A). These spots are localized between 37 kDa and 75 kDa. The fluorescence signal of each spot is normalized over the internal standard spot signal for each gel. The alignment of spots from different gels and the analysis of variance of their carbonylation levels in different samples and in different groups are performed by using the software Progenesis Samespots.
smiles,measurement,setting,value
"CC1=N[C@H](C(=O)O)CCN1 [Ectoine, (S)-1,4,5,6-tetrahydro-2-methyl-4-pyrimidincarboxylic acid]",Filaggrin expression level,Filaggrin,prevents this decrease of Filaggrin
same,LAMP2A expression,LAMP2A,increases LAMP2A expression
same,Average normalized volume (oxidation level),"skin explants; Spot 100 (protein not identified), n=4",→ 1.129
same,Average normalized volume (oxidation level),"skin explants; Spot 203 (protein not identified), n=4",→ 1.062
same,Average normalized volume (oxidation level),"skin explants; Spot 230 (protein not identified), n=4",→ 1.433
same,level of oxidation of protein spots in the absence of irradiation,"skin explants; basal conditions, no UV-A, spots different from those protected from UV-A stress (except spot 100)",decreases the level of oxidation of ten protein spots
same,"protein carbonylation after ectoine treatment, spots 100, 230, 203","skin explants; ectoine 0.2%, UV-A irradiation, n=4",carbonylation is not reduced
same,protection of protein spots from UV-A induced oxidation (carbonylation),"skin explants; ectoine 0.2%, of 8 spots increased by UV-A, spots 186, 133, 184, 185, 206, n=4",five spots are detected as protected and 5 proteins exhibit reduced protein carbonylation and prevents protein carbonylation significantly

# Reference: patent EP4007561B1, “PREVENTION AND REDUCTION OF CORNIFICATION DISORDERS AND RELATED COSMETIC AGENTS” (Merck Patent GmbH, priority 2019, dated 2021)
